This note sets out measurements from US20090104145A1, “Mixtures of Anthranilamide Invertebrate Pest Control Agents” (priority 2004, published 2009).

This assay concerns corn planthopper (Pereginus maidis). Nature of the assay: whole plant or invertebrate. The assay is classed as in vivo. Conditions: read-out: % mortality (obs). The method, then: The pest control protection afforded by the mixtures or compositions is not limited, however, to these species. The analysis of synergism or antagonism between the mixtures or compositions was determined using Colby's equation. The average % mortality data for the test compounds alone were inserted into the Colby's equation. If the observed average % mortality was higher than “p”, the expected % mortality, the mixture or composition had synergistic effects. If the observed average % mortality was equal to or lower than the expected mortality, the mixture or composition either had no synergistic effect or an antagonistic effect. In these tests, Compound 1 is the compound of Formula 1.
Test compounds were formulated using a solution containing 10% acetone, 90% water and 300 ppm X-77® Spreader Lo-Foam Formula non-ionic surfactant containing alkylarylpolyoxyethylene, free fatty acids, glycols and isopropanol (Loveland Industries, Inc.) to provide the desired concentration in ppm. Formulated test solutions were then applied in 1 mL volumes through a SUJ2 atomizer nozzle with ⅛ JJ custom body (Spraying Systems Co.) positioned 1.27 cm (0.5 inches) above the top of each test unit.
For evaluating control of corn planthopper (Pereginus maidis) through contact and/or systemic means, each test unit consisted of a small open cylindrical container with a 3- to 4-day-old corn (maize) plant (spike) inside. White sand was added to the top of the soil prior to application. Test compounds were formulated and sprayed with 3 replications as described for Test A. After spraying, the test units were allowed to dry for 1 hour before they were post-infested with 10 to 20 corn planthoppers (18- to 20-day-old nymphs) by sprinkling them onto the sand with a salt shaker. A black, screened cap was placed on the top of each container. The test units were held for 6 days in a growth chamber at 19-21° C. and 50-70% relative humidity.

Usually mortality stands for the percentage killed. In the case of `CNC(=O)c1cc(C#N)cc(C)c1NC(=O)c1cc(Br)nn1-c1ncccc1Cl` [Compound 1, 3-bromo-N-[4-cyano-2-methyl-6-[(methylamino)carbonyl]phenyl]-1-(3-chloro-2-pyridinyl)-1H-pyrazole-5-carboxamide], the mortality at 0.3 ppm (rate 0.3 ppm) amounted to 15%. The mortality at 3 ppm (rate 3 ppm) came out at 26%. Moreover, the mortality at 30 ppm (rate 30 ppm) was found to be 90%.
